Measurements from US10000486B2 (priority 2012, dated 2018).

Tests used:
[1] = tested on: Lassa GP-pseudotyped-virus; experiment: microbe, parasite or virus in culture; format: cell-based, Lassa fever virus; conditions: for EC50: Human immunodeficiency virus 1, read-out: Activity (EC50 in μM vs. pseudotyped virus) Lassa
[2] = tested on: Machupo pseudotyped virus; experiment: organism not typed; format: cell-based; conditions: read-out: Activity (EC50 in μM vs. pseudotyped virus) Machupo
[3] = tested on: Guanarito pseudotyped virus; experiment: organism not typed; format: cell-based; conditions: read-out: Activity (EC50 in μM vs. pseudotyped virus) Guanarito
[4] = tested on: Junín pseudotyped virus; experiment: organism not typed; format: cell-based; conditions: read-out: Activity (EC50 in μM vs. pseudotyped virus) Junín
[5] = tested on: Sabiá pseudotyped virus; experiment: organism not typed; format: cell-based; conditions: read-out: Activity (EC50 in μM vs. pseudotyped virus) Sabiá
[6] = tested on: VSVg pseudotyped virus; experiment: organism not typed; format: cell-based; conditions: read-out: Activity (EC50 in μM vs. pseudotyped virus) VSVg

## CCOc1ccc(-n2cnc3cc(SCc4ccc(CC)cc4)ccc32)cc1 [Compound 33, 1-(4-ethoxyphenyl)-5-[(4-ethylphenyl)-methylsulfanyl]benzimidazole]
[1]
  EC50: < 1 µM
[2]
  EC50: < 1 µM
[3]
  EC50: < 1 µM
[4]
  EC50: < 1 µM
[5]
  EC50: < 1 µM
[6]
  EC50: 10 to 50 µM

## CCOc1ccc(-n2cnc3cc(/C=C\c4ccc(CC)cc4)ccc32)cc1 [Compound 2, 1-(4-ethoxyphenyl)-5-[(Z)-2-(4-ethylphenyl)vinyl]benzimidazole]
[1]
  EC50 value against Lassa GP-pseudotyped-virus: submicromolar
  EC50: < 1 µM
[2]
  EC50: < 1 µM
[3]
  EC50: < 1 µM
[4]
  EC50: < 1 µM
[5]
  EC50: < 1 µM
[6]
  EC50: 10 to 50 µM

## CCOc1ccc(-n2cnc3cc(OCc4ccc(CC)cc4)cnc32)cc1 [Compound 31, 3-(4-ethoxyphenyl)-6-[(4-ethylphenyl)-methoxy]imidazo[4,5-b]pyridine]
[1]
  EC50: < 1 µM
[2]
  EC50: < 1 µM
[3]
  EC50: < 1 µM
[4]
  EC50: < 1 µM
[5]
  EC50: < 1 µM
[6]
  EC50: 10 to 50 µM
